Reference: paper PMC11396746, “Stability Evaluation and Pharmacokinetic Profiling of Vepdegestrant in Rodents Using Liquid Chromatography–Tandem Mass Spectrometry” (Molecules, 2024)

How the values were obtained:
[1] = Metabolic stability in mouse liver microsomes; type: in vitro ADME; conditions: 60 min, 1 μM, with NADPH
Method: (§1) The metabolic stability of vepdegestrant was evaluated using liver microsomes obtained from mice, rats, dogs, and humans. Vepdegestrant was dissolved in DMSO to prepare a stock solution with a concentration of 0.1 mM. Microsomes (25 µL) were spiked into PBS (440 µL) and pre-incubated for 5 min. After pre-incubation, vepdegestrant stock solution (5 µL) was added, followed by an NADPH regenerating system (27 µL) to initiate the reaction. The composition of the reaction mixture was as follows: Vepdegestrant (final concentration 1 µM), mouse, rat, dog, human liver microsomes (protein concentration: 1 mg/mL), NADPH regenerating system (final concentrations: 1.3 mM NADP^+, 3.3 mM glucose-6-phosphate, 0.4 U/mL glucose-6-phosphate dehydrogenase, and 3.3 mM magnesium chloride), and PBS (pH 7.4). At 5, 15, 30, and 60 min after starting the reaction, aliquots (50 µL) were taken and added to ice-cold ACN with an IS (200 µL) to terminate the reaction. For the zero-time samples, aliquots were taken before adding NADPH. Subsequently, the mixture was vigorously mixed for 10 min and centrifuged at 17,054 g under 25 °C for 10 min. For analysis, 5 µL of the supernatant was injected into the HPLC-MS/MS system. In addition, the stability of vepdegestrant in rat liver microsomes was assessed in the absence of NADPH or NADPH and microsomes (PBS only). […]

[2] = Adsorption investigation after pH stability test (microtube emptied, ACN added, vepdegestrant recovered); type: physicochemical
Method: The half-lives of vepdegestrant at pH values of 2, 4, 6, 7.4, 8, and 10 were 7.35, 0.77, 0.40, 0.50, 0.38, and 0.60 h, respectively. Sun et al. reported that the thalidomide ligand, a cereblon-targeting moiety of PROTAC, was rapidly degraded in phosphate-buffered saline (PBS; pH 7.4). The binder in vepdegestrant contained lenalidomide, a CRBN ligand with a chemical structure similar to that of thalidomide. In addition, Chen et al. reported that the glutarimide ring of lenalidomide is cleaved and degraded through non-enzymatic hydrolysis in aqueous solutions and hepatocytes at physiological pH [24]. However, this instability might be attributed to the adsorption of vepdegestrant onto the surfaces of experimental containers such as microtubes. A high proportion of organic solvent can prevent vepdegestrant from binding to the sample vial surface, and the possibility of adsorption exists because a buffer solution was used in this study. To investigate adsorption, after the pH stability test was completed, the incubation mixture was completely emptied, and ACN was added and thoroughly mixed. LC-MS/MS analysis includes MRM transitions for the expected hydrolysis product i.e., m/z 742.3 → 356.3, to detect the presence of degradation products. […] In contrast, hydrolysis may play a significant role at pH 10. Based on these findings, future studies should consider the selection of container materials and the use of organic solvents to minimize vepdegestrant adsorption.

[3] = Stability of vepdegestrant in mouse plasma under storage conditions (method validation); type: in vitro ADME
Method: The results were within ±15% RE under all storage conditions, including at room temperature for 6 h, after three freeze–thaw cycles, at −20 °C for 4 weeks, and in an autosampler for 24 h after sample preparation.
Stability was tested for vepdegestrant in biological samples at LQC and HQC under specific conditions: Short-term stability at room temperature for 6 h, three freeze–thaw cycles, long-term stability at −20 °C for 4 weeks, and pretreated samples in an autosampler for 24 h. The stability test was performed via five replicates analysis, with the acceptance criteria being an RE within ±15% at LQC and HQC levels.

[4] = Stability in PBS only (control of microsomal stability test, no NADPH and no microsomes); type: physicochemical; conditions: PBS (pH 7.4), 1 h incubation
Method: as §1

[5] = Plasma stability at 4, 25 and 37 °C; type: in vitro ADME; conditions: mouse and rat plasma at 4, 25 and 37 °C, 4 h incubation, 0.1 µg/mL
Method: Plasma stability of vepdegestrant was investigated in mouse and rat plasma. Vepdegestrant (10 µL) was added to blank mouse or rat plasma (490 µL) to prepare a final concentration of 0.1 µg/mL. The mixtures were incubated at 4, 25, and 37 °C. After 0, 1, and 4 h of incubation, aliquots (50 µL) were added to microtubes containing ice-cold ACN solution with an IS (200 µL) to terminate the reaction. The mixture was vortexed thoroughly for 10 min and centrifuged at 17,054 g under 25 °C for 10 min. Subsequently, the supernatant (100 µL) was taken, and 5 µL was injected for HPLC-MS/MS analysis.

[6] = Metabolic stability in rat liver microsomes; type: in vitro ADME
Method: The metabolic stability of vepdegestrant was evaluated using liver microsomes obtained from mice, rats, dogs, and humans. Vepdegestrant was dissolved in DMSO to prepare a stock solution with a concentration of 0.1 mM. Microsomes (25 µL) were spiked into PBS (440 µL) and pre-incubated for 5 min. After pre-incubation, vepdegestrant stock solution (5 µL) was added, followed by an NADPH regenerating system (27 µL) to initiate the reaction. The composition of the reaction mixture was as follows: Vepdegestrant (final concentration 1 µM), mouse, rat, dog, human liver microsomes (protein concentration: 1 mg/mL), NADPH regenerating system (final concentrations: 1.3 mM NADP^+, 3.3 mM glucose-6-phosphate, 0.4 U/mL glucose-6-phosphate dehydrogenase, and 3.3 mM magnesium chloride), and PBS (pH 7.4). At 5, 15, 30, and 60 min after starting the reaction, aliquots (50 µL) were taken and added to ice-cold ACN with an IS (200 µL) to terminate the reaction. For the zero-time samples, aliquots were taken before adding NADPH. Subsequently, the mixture was vigorously mixed for 10 min and centrifuged at 17,054 g under 25 °C for 10 min. For analysis, 5 µL of the supernatant was injected into the HPLC-MS/MS system. In addition, the stability of vepdegestrant in rat liver microsomes was assessed in the absence of NADPH or NADPH and microsomes (PBS only). The experimental procedure was the same as described for the microsomal stability test, except that an equivalent volume of PBS was added instead of NADPH or microsomes.

[7] = pH stability in buffer solutions (pH 2-10) and PBS pH 7.4; type: physicochemical; conditions: for vepdegestrant remaining: 2 h, 0.1 µg/mL
Method: The physicochemical stability of vepdegestrant was determined using various pH buffers (pH 2.0–10.0) and plasma and microsomes.
A solution of vepdegestrant in methanol (10 µL) was added to buffer solutions at pH 2, 4, 6, 8, and 10 or pH 7.4 PBS (490 µL), yielding a final concentration of 0.1 µg/mL, and incubated at 37 °C, with 100 rpm in a water bath. At 0, 0.5, 1, and 2 h post-incubation, the incubation mixture (50 µL) was transferred to microtubes containing ice-cold ACN solution (200 µL) with IS to terminate the reaction. The mixture was vortexed thoroughly for 10 min. Subsequently, the supernatant (100 µL) was taken, and 5 µL was injected for HPLC-MS/MS analysis.

O=C1CC[C@H](N2Cc3cc(N4CCN(CC5CCN(c6ccc([C@@H]7c8ccc(O)cc8CC[C@@H]7c7ccccc7)cc6)CC5)CC4)ccc3C2=O)C(=O)N1 [vepdegestrant, Vepdegestrant]
remaining percentage of unconverted vepdegestrant [1]: 106% | recovered vepdegestrant percentage (adsorbed to microtube, recovered with ACN) ([2]; pH 2, after pH stability test): 21.8% | recovered vepdegestrant percentage (adsorbed to microtube, recovered with ACN) ([2]; pH 4, after pH stability test): 108.9% | recovered vepdegestrant percentage (adsorbed to microtube, recovered with ACN) ([2]; pH 6, after pH stability test): 105.1% | recovered vepdegestrant percentage (adsorbed to microtube, recovered with ACN) ([2]; pH 7.4, after pH stability test): 72.6% | recovered vepdegestrant percentage (adsorbed to microtube, recovered with ACN) ([2]; pH 8, after pH stability test): 63.9% | recovered vepdegestrant percentage (adsorbed to microtube, recovered with ACN) ([2]; pH 10, after pH stability test): 27.7% | Stability in Mouse Plasma ([3]; 1 month at −20 °C, nominal 3 ng/mL): 103.1 ± 5.4% | Stability in Mouse Plasma ([3]; 1 month at −20 °C, nominal 900 ng/mL): 107.7 ± 4.0% | Stability in Mouse Plasma ([3]; 6 h at room temperature (25 °C), nominal 3 ng/mL): 97.70 ± 4.12% | Stability in Mouse Plasma ([3]; 6 h at room temperature (25 °C), nominal 900 ng/mL): 110.7 ± 2.8% | Stability in Mouse Plasma ([3]; Freeze–thaw three-cycle (−20 °C → RT), nominal 3 ng/mL): 99.78 ± 1.60% | Stability in Mouse Plasma ([3]; Freeze–thaw three-cycle (−20 °C → RT), nominal 900 ng/mL): 103.3 ± 4.1% | Stability in Mouse Plasma ([3]; Processed sample in 10 °C autosampler for 24 h, nominal 3 ng/mL): 104.0 ± 7.2% | Stability in Mouse Plasma ([3]; Processed sample in 10 °C autosampler for 24 h, nominal 900 ng/mL): 98.49 ± 8.79% | vepdegestrant remaining [4]: 10.2% | vepdegestrant remaining in plasma [5]: 86.3–113.5% | half-life at 1 µM ([6]; Sprague-Dawley, liver microsomes, pH 7.4, rat microsomes, 1 μM): 36.9 min | vepdegestrant remaining ([6]; rat microsomes in the absence of NADPH, 1 h incubation): 86.6% | remaining percentage of unconverted vepdegestrant ([6]; rat microsomes, 60 min, 1 μM, with NADPH): 32.2% | half-life at 0.1 µg/mL ([7]; PBS pH 7.4, pH 7.4 (PBS), 37 °C): 30 min | half-life at 0.1 µg/mL ([7]; pH 2 buffer solution, pH 2, 37 °C): 441 min | vepdegestrant remaining ([7]; pH 2 buffer, 37 °C): 82.6% | half-life at 0.1 µg/mL ([7]; pH 4 buffer solution, pH 4, 37 °C): 46.2 min | vepdegestrant remaining ([7]; pH 4–10 buffers, 37 °C): 2.25–12.8% | half-life at 0.1 µg/mL ([7]; pH 6 buffer solution, pH 6, 37 °C): 24 min | half-life at 0.1 µg/mL ([7]; pH 8 buffer solution, pH 8, 37 °C): 22.8 min | half-life at 0.1 µg/mL ([7]; pH 10 buffer solution, pH 10, 37 °C): 36 min
